Test results as given in paper PMC7166077, “A systematic strategy for estimating hERG block potency and its implications in a new cardiac safety paradigm” (Toxicology and Applied Pharmacology, 2020).

Target: T1, hERG (Kv11.1 potassium channel) (Homo sapiens, UniProt Q12809)
T1 construct: gene KCNH2
Experiment: automated patch clamp, multi-site, Bayesian hierarchical model

T1 sequence (Q12809 whole entry): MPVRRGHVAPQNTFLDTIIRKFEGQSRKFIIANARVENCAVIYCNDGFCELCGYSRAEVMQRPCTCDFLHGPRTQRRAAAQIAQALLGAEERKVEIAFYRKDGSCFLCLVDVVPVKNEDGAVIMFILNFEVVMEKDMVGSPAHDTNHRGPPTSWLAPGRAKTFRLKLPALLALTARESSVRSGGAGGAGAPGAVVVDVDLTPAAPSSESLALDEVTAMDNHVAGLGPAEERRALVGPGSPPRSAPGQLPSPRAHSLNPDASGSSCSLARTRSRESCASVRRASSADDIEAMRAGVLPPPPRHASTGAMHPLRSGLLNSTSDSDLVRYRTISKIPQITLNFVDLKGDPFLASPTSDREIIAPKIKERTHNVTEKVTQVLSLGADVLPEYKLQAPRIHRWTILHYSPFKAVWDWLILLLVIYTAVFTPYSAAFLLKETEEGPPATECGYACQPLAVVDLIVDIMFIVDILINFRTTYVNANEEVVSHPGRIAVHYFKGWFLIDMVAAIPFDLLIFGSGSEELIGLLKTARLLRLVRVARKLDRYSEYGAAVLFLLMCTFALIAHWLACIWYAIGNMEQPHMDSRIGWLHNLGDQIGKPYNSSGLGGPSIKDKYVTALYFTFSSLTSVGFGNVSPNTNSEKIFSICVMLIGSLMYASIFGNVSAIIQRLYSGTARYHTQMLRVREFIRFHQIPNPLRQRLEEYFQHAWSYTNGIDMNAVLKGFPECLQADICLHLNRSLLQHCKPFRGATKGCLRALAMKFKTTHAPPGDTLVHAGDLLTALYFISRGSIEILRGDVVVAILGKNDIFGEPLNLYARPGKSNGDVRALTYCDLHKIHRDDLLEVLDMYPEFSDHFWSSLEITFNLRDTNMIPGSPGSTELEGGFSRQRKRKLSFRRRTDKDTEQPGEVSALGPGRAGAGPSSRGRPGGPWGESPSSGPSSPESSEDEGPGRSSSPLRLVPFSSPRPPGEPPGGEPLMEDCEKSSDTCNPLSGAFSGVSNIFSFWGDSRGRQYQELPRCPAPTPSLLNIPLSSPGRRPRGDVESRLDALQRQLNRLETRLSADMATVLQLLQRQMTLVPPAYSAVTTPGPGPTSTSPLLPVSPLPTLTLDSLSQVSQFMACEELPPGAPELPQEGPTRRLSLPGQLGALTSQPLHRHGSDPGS

CCOC(=O)C1=C(C)NC(C)=C(C(=O)OC)C1c1cccc([N+](=O)[O-])c1 (stereo not shown) [nitrendipine]
IC50: 20 µM
